Target: IDO1 (Homo sapiens, UniProt P14902)
Assay: IDO1 Cellular Assay in HeLa Cells Stimulated with IFNγ
Format: cell-based
Set-up: endogenous in cells; host or cells: HeLa cells stimulated with IFNγ
Details: HeLa cells stimulated with IFNγ 100 ng/mL, 300 uM L-tryptophan, about 48 hours, fluorescence readout; read-out: IDO1 HELA Cell Assay, IC50
Description: Biological Assays IDO1 Cellular Assay in HeLa Cells Stimulated with IFNγ HeLa cells were cultured in complete HeLa culture medium (90% EMEM, 10% heat-inactivated fetal bovine serum) and expanded to about 1×10^9 cells. The cells were then collected and frozen down at 1×10^7 cells/vial in 1 mL frozen medium (90% complete HeLa culture medium, 10% DMSO). Compounds to be tested were serially diluted in ten 3-fold steps in DMSO starting from 10 mM DMSO stocks in Echo low volume plate(s). Compound dilutions or DMSO alone were then dispensed from the dilution plate(s) into Greiner black 384-well assay plate(s) (catalog #781086, 50 nL/well) using an Echo 550 acoustic liquid handler (Labcyte). Frozen HeLa cells were thawed and transferred into HeLa assay medium (99% complete HeLa culture medium, 1% Pen/Strep) with 20 mL medium/vial of cells. The cells were spun down at 250 g in a table top centrifuge for 5 min and suspended in same volume of HeLa assay medium. The cells were then counted and adjusted to a density of 2×10^5 cells/mL in HeLa assay medium. Sterile L-tryptophan were added to the cells with final concentration of 300 uM L-tryptophan. A small aliquot (2 mL/plate) of HeLa cells were set aside and were not treated with IFNγ, to serve as the Max-E control. The rest of HeLa cells were added with sterile IFNγ (Cat #285-IF, R & D systems) with a final concentration of 100 ng/mL. HeLa cells with and without IFNγ were dispensed to the respective wells of 384-well assay plates containing the compounds. The plates were incubated for about 48 hours at a 37° C., 5% CO2 incubator. Afterwards, 12 μL of 0.5 M methyl isonipecotate in dimethyl sulfoxide were added into each well and the plates were sealed and incubated at 37° C. without CO2 overnight. The plates were centrifuged for 1 min at 200×g. The resulting fluorescence was measured in a Spectramax plate reader (Molecular Devices) with a 400 nm excitation filter and a 510 nm emission filter. The fluorescence intensity of each well was corrected for the background observed in wells with non-IFNγ-treated cells and was expressed as a fraction of the intensity observed in wells of IFNγ-treated cells and DMSO only. Potencies were calculated by […] least squares fit to the four parameter logistic IC50 equation.

Chain of IDO1 (P14902 whole entry): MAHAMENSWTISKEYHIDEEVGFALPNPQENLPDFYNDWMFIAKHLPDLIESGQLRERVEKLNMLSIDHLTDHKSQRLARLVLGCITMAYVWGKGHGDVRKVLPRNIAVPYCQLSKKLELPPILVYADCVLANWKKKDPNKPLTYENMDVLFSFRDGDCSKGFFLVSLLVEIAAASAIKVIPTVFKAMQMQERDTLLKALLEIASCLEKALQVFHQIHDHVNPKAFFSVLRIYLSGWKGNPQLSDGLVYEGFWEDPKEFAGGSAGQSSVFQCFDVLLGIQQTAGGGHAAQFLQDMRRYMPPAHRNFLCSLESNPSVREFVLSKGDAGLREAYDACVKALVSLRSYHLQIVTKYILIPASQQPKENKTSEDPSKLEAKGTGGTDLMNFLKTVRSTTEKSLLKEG

IC50	Compound
0.00462 µM	CC(C)(C)OC(=O)N1C[C@H]2C[C@H]2c2nc(C3(NC(=O)c4ccc(F)cc4)CC3)ccc21 [Example 53, tert-butyl (6aS,7aR)-2-(1-(4-fluorobenzamido)cyclopropyl)-6,6a,7,7a-tetrahydro-5H-cyclo-propa[c][1,5]naphthyridine-5-carboxylate]
0.00339 µM	Cc1nccc(N2C[C@H]3C[C@H]3c3nc([C@@]4(NC(=O)c5ccc(F)cc5)C[C@@H]4C)ccc32)n1 [Example 45, 4-fluoro-N-((1R,2S)-2-methyl-1-((6aS,7aR)-5-(2-methyl-pyrimidin-4-yl)-6,6a,7,7a-tetra-hydro-5H-cyclopropa[c][1,5]-naphthyridin-2-yl)cyclopropyl)-benzamide]
0.0244 µM	Cc1nccc(N2C[C@H]3C[C@H]3c3nc([C@]4(NC(=O)c5ccc(F)cc5)C[C@@H]4C)ccc32)n1 [Example 46, 4-fluoro-N-((1S,2S)-2-methyl-1-((6aS,7aR)-5-(2-methyl-pyrimidin-4-yl)-6,6a,7,7a-tetra-hydro-5H-cyclopropa[c][1,5]-naphthyridin-2-yl)cyclopropyl)-benzamide]
0.00576 µM	O=C(NC1(c2ccc3c(n2)C2CC(C2)N3C(=O)OC2CC2)CC1)c1ccc(F)cc1 [Example 50, cyclopropyl 6-(1-(4-fluorobenzamido)cyclopropyl)-3,4-dihydro-2,4-methano-1,5-naphthyridine-1(2H)-carboxylate]
0.0806 µM	4-fluoro-N-(2-((6aS,7aR)-5-(2-methylpyrimidin-4-yl)-6,6a,7,7a-tetrahydro-5H-cyclopropa[c][1,5]naphthyridin-2-yl)propan-2-yl)benzamide [Example 31]
0.0966 µM	CC(C)(C)OC(=O)N1C[C@@H]2C[C@@H]2c2nc(C3(NC(=O)c4ccc(F)cc4)CC3)ccc21 [Example 52, tert-butyl (6aR,7aS)-2-(1-(4-fluorobenzamido)cyclopropyl)-6,6a,7,7a-tetrahydro-5H-cyclo-propa[c][1,5]naphthyridine-5-carboxylate]
0.221 µM	CC(C)(NC(=O)c1ccc(F)cc1)c1ccc2c(n1)[C@H]1C[C@H]1CN2C(=O)OC1CC1 (single isomer, unassigned) [Example 34]
0.052 µM	Cc1nccc(N2CC3CC3c3nc(C4(NC(=O)c5ccc(F)cc5)CC4C)ccc32)n1 (racemic) [Example 47, 4-fluoro-N-(2-methyl-1-(5-(2-methylpyrimidin-4-yl)-6,6a, 7,7a-tetrahydro-5H-cyclopropa[c][1, 5]naphthyridin-2-yl)cyclopropyl)benzamide]
0.211 µM	CCC(NC(=O)c1ccc(F)cc1)c1ccc2c(n1)C1CC1CN2C(=O)OC1CC1 (single isomer, unassigned) [Example 36, cyclopropyl 2-(1-(4-fluorobenzamido)propyl)-6,6a,7,7a-tetrahydro-5H-cyclopropa[c][1,5]naphthyridine-5-carboxylate]
0.00317 µM	Cc1nccc(N2C[C@@H]3C[C@@H]3c3nc([C@]4(NC(=O)c5ccc(F)cc5)C[C@@H]4C)ccc32)n1 [Example 42, 4-fluoro-N-((1S,2S)-2-methyl-1-((6aR,7aS)-5-(2-methyl-pyrimidin-4-yl)-6,6a,7,7a-tetra-hydro-5H-cyclopropa[c][1,5]-naphthyridin-2-yl)cyclopropyl)-benzamide]
0.0166 µM	CC(C)(C)OC(=O)N1CC2CC2c2nc(C(C)(C)NC(=O)c3ccc(F)cc3)ccc21 (centres unmarked) [Example 55, tert-butyl 2-(2-(4-fluorobenz-amido)propan-2-yl)-6,6a,7,7a-tetrahydro-5H-cyclopropa[c]-[1,5]naphthyridine-5-carboxylate]
0.00808 µM	Cc1nccc(N2c3ccc(C4(NC(=O)c5ccc(F)cc5)CC4)nc3C3CC2C3)n1 [Example 51, 4-fluoro-N-(1-(1-(2-methylpyrimidin-4-yl)-1,2,3,4-tetrahydro-2,4-methano-1,5-naphthyridin-6-yl)cyclopropyl)benzamide]
0.00327 µM	Cc1nccc(N2C[C@H]3C[C@H]3c3nc([C@@]4(NC(=O)c5ccc(F)cc5)C[C@H]4C)ccc32)n1 [Example 43, 4-fluoro-N-((1R,2R)-2-methyl-1-((6aS,7aR)-5-(2-methyl-pyrimidin-4-yl)-6,6a,7,7a-tetra-hydro-5H-cyclopropa[c][1,5]-naphthyridin-2-yl)cyclopropyl)-benzamide]
0.0763 µM	Cc1nccc(N2c3ccc(C4(NC(=O)c5ccc(F)cc5)CC4)nc3C3CC2C3C)n1 (centres unmarked) [Example 48, 4-fluoro-N-(1-(3-methyl-1-(2-methylpyrimidin-4-yl)-1,2,3,4-tetrahydro-2,4-methano-1,5-naphthyridin-6-yl)cyclopropyl)benzamide]
0.0204 µM	O=C(NC1(c2ccc3c(n2)C2CC(C2)N3C(=O)OCc2ccccc2)CC1)c1ccc(F)cc1 [Example 49, benzyl 6-(1-(4-fluorobenzamido)cyclopropyl)-3,4-dihydro-2,4-methano-1,5-naphthyridine-1(2H)-carboxylate]

Second part, the compound before the results:

Compound	IC50
Cc1nccc(N2C[C@H]3C[C@H]3c3nc(C4(NC(=O)c5ccc(F)cc5)CC4)ccc32)n1 (stereo in doubt) [Example 13, 4-fluoro-N-(1-(5-(2-methylpyrimidin-4-yl)-6,6a,7,7a-tetrahydro-5H-cyclopropa[c][1,5]naphthyridin-2-yl)cyclopropyl)benzamide]	0.00107 µM
Cc1nccc(N2C[C@@H]3C[C@@H]3c3nc(C4(NC(=O)c5ccc(F)cc5)CC4)ccc32)n1 (stereo in doubt) [Example 12, 4-fluoro-N-(1-(5-(2-methylpyrimidin-4-yl)-6,6a,7,7a-tetrahydro-5H-cyclopropa[c][1,5]naphthyridin-2-yl)cyclopropyl)benzamide]	0.00191 µM
CC(NC(=O)c1ccc(F)cc1)c1ccc2c(n1)C1CC1CN2C(=O)OC(C)(C)C (centres unmarked) [Example 24, tert-butyl 2-(1-(4-fluorobenzamido)ethyl)-6,6a,7,7a-tetrahydro-5H-cyclopropa[c][1,5]naphthyridine-5-carboxylate]	0.0209 µM
Cc1nccc(N2CC3CC3c3cc(C4(NC(=O)c5ccc(F)cc5)CC4)ccc32)n1 [Example 1, 4-fluoro-N-(1-((1aR,7bS)-3-(2-methylpyrimidin-4-yl)-1a,2,3,7b-tetrahydro-1H-cyclopropa[c]quinolin-6-yl)cyclopropyl)benzamide]	0.00167 µM
C[C@H](NC(=O)c1ccc(F)cc1)c1ccc2c(n1)[C@H]1C[C@H]1CN2C(=O)OC1CC1 [Example 25, cyclopropyl (6aR,7aS)-2-((S)-1-(4-fluorobenzamido)-ethyl)-6,6a,7,7a-tetrahydro-5H-cyclopropa[c][1,5]-naphthyridine-5-carboxylate]	0.0154 µM
Cc1nccc(N2c3ccc(C4(NC(=O)c5ccc(F)cc5)CC4)cc3C3CC32)n1 (single isomer, unassigned) [Example 8, 4-fluoro-N-(1-(2-(2-methylpyrimidin-4-yl)-1,1a,2,6b-tetrahydrocyclopropa[b]indol-5-yl)cyclopropyl)benzamide]	0.00291 µM
COC(=O)c1nccc(N2CC3CC3c3nc(C4(NC(=O)c5ccc(F)cc5)CC4)ccc32)n1 (centres unmarked) [Example 17, methyl 4-(2-(1-(4-fluorobenzamido)cyclopropyl)-6,6a,7,7a-tetrahydro-5H-cyclopropa[c][1,5]naphthyridin-5-yl)pyrimidine-2-carboxylate]	0.00902 µM
Cc1nccc(N2c3ccc(C4(NC(=O)c5ccc(F)cc5)CC4)cc3C3CC32)n1 (single isomer, unassigned) [Example 9, 4-fluoro-N-(1-(2-(2-methylpyrimidin-4-yl)-1,1a,2,6b-tetrahydrocyclopropa[b]indol-5-yl)cyclopropyl)benzamide]	0.00821 µM
O=C(NC1(c2ccc3c(n2)[C@H]2C[C@H]2CN3C(=O)OC2CCOCC2)CC1)c1ccc(F)cc1 [Example 22, tetrahydro-2H-pyran-4-yl (6aR,7aS)-2-(1-(4-fluorobenzamido)cyclo-propyl)-6,6a,7,7a-tetra-hydro-5H-cyclopropa[c]-[1,5]naphthyridine-5-carboxylate]	0.0616 µM
C[C@H](NC(=O)c1ccc(F)cc1)c1ccc2c(n1)[C@@H]1C[C@@H]1CN2C(=O)OC1CC1 [Example 26, cyclopropyl (6aS,7aR)-2-((S)-1-(4-fluorobenzamido)-ethyl)-6,6a,7,7a-tetrahydro-5H-cyclopropa[c][1,5]-naphthyridine-5-carboxylate]	0.035 µM
C[C@@H](NC(=O)c1ccc(F)cc1)c1ccc2c(n1)[C@H]1C[C@H]1CN2C(=O)OC1CC1 [Example 28, cyclopropyl (6aR,7aS)-2-((R)-1-(4-fluorobenzamido)-ethyl)-6,6a,7,7a-tetrahydro-5H-cyclopropa[c][1,5]-naphthyridine-5-carboxylate]	0.0293 µM
